From the NIST ThermoML archive (doi:10.1021/je100175j)

Columns and labels:
[1] = for Triple point temperature: DTA
[2] = Molar enthalpy of transition or fusion; conditions: Crystal; DSC

CN(C)C(=O)c1ccccc1 [N,N-dimethylbenzamide]
[1], Crystal
Conditions	vapor or sublimation pressure [kPa]
297.04 K	0.00054
299.03 K	0.00069
301.02 K	0.00086
303.02 K	0.0011
305 K	0.00138
307 K	0.00171
308.98 K	0.00215
310.98 K	0.00269
312.98 K	0.00336
314.98 K	0.00418

[1], Liquid, Closed cell (Static) method
Conditions	vapor or sublimation pressure [kPa]
301.98 K	0.00134
303.99 K	0.00162
305.97 K	0.00195
307.96 K	0.00232
310.43 K	0.00289
312.3 K	0.00343
314 K	0.00399
316 K	0.00472
317.97 K	0.0056
319.95 K	0.00658
321.94 K	0.00776
323.93 K	0.00909
325.88 K	0.01066
327.91 K	0.01239
329.85 K	0.01439
331.88 K	0.01676
333.84 K	0.01949
335.85 K	0.02238
337.8 K	0.02598
339.82 K	0.02969
341.77 K	0.03432
343.8 K	0.03916
345.73 K	0.04503
347.77 K	0.05151
349.68 K	0.05866
351.75 K	0.06697
353.64 K	0.07571
355.7 K	0.08611
357.62 K	0.09722
359.68 K	0.1102
361.66 K	0.1244

Conditions	Triple point temperature [K]
[1], Crystal	316.9

Conditions	Molar enthalpy of transition or fusion [kcal/mol]
[2]	5.07

CNC(=O)c1ccccc1 [N-methylbenzamide]
[1], Liquid, Closed cell (Static) method
Conditions	vapor or sublimation pressure [kPa]
322.88 K	0.00067
324.94 K	0.00083
326.92 K	0.00099
328.89 K	0.00117
330.88 K	0.0014
332.86 K	0.00166
334.86 K	0.00201
336.84 K	0.00241
338.82 K	0.00284
340.8 K	0.00336
342.8 K	0.00398
344.8 K	0.0047
346.77 K	0.00547
348.77 K	0.0064
350.75 K	0.00753
352.74 K	0.00861
354.74 K	0.01013
356.7 K	0.01168
358.72 K	0.01359
360.66 K	0.01572
362.68 K	0.01812
364.63 K	0.02093
366.62 K	0.02394
368.59 K	0.0275
370.59 K	0.03148
372.57 K	0.03612
374.56 K	0.04095
376.53 K	0.04725
378.51 K	0.05325
380.49 K	0.06051
382.47 K	0.06884
384.46 K	0.07804
386.43 K	0.08821
388.4 K	0.101

[1], Crystal
Conditions	vapor or sublimation pressure [kPa]
324.88 K	0.0005
326.83 K	0.00063
328.93 K	0.0008
330.82 K	0.00098
332.75 K	0.00121
334.8 K	0.00152
336.82 K	0.00189
338.85 K	0.00235
340.81 K	0.00284
342.75 K	0.00348
344.79 K	0.00426
345.79 K	0.00471
346.8 K	0.00528
347.77 K	0.00575
348.76 K	0.00631

Conditions	Triple point temperature [K]
[1], Crystal	347.41

Conditions	Molar enthalpy of transition or fusion [kcal/mol]
[2]	4.45

NC(=O)c1ccccc1 [benzamide]
[1]
Conditions	vapor or sublimation pressure [kPa]
324.11 K, Crystal, Calculated from knudsen effusion weight loss	0.000108
326.19 K, Crystal, Calculated from knudsen effusion weight loss	0.000136
328.19 K, Crystal, Calculated from knudsen effusion weight loss	0.000169
330.1 K, Crystal, Calculated from knudsen effusion weight loss	0.000215
332.16 K, Crystal, Calculated from knudsen effusion weight loss	0.000267
334.18 K, Crystal, Calculated from knudsen effusion weight loss	0.000332
336.1 K, Crystal, Calculated from knudsen effusion weight loss	0.000415
338.17 K, Crystal, Calculated from knudsen effusion weight loss	0.000513
340.19 K, Crystal, Calculated from knudsen effusion weight loss	0.000634
342.11 K, Crystal, Calculated from knudsen effusion weight loss	0.000794
344.18 K, Crystal, Calculated from knudsen effusion weight loss	0.000981
344.8 K, Crystal, Closed cell (Static) method	0.0011
346.18 K, Crystal, Calculated from knudsen effusion weight loss	0.001205
346.78 K, Crystal, Closed cell (Static) method	0.00135
348.77 K, Crystal, Closed cell (Static) method	0.00166
350.76 K, Crystal, Closed cell (Static) method	0.00204
352.74 K, Crystal, Closed cell (Static) method	0.00247
354.72 K, Crystal, Closed cell (Static) method	0.00301
356.71 K, Crystal, Closed cell (Static) method	0.00366
358.69 K, Crystal, Closed cell (Static) method	0.00438
360.68 K, Crystal, Closed cell (Static) method	0.00534
362.68 K, Crystal, Closed cell (Static) method	0.00631
364.64 K, Crystal, Closed cell (Static) method	0.00769
366.62 K, Crystal, Closed cell (Static) method	0.00906
368.6 K, Crystal, Closed cell (Static) method	0.01095
370.59 K, Crystal, Closed cell (Static) method	0.01299
372.59 K, Crystal, Closed cell (Static) method	0.01556
374.55 K, Crystal, Closed cell (Static) method	0.01829
376.53 K, Crystal, Closed cell (Static) method	0.02177
378.52 K, Crystal, Closed cell (Static) method	0.02586
380.43 K, Liquid, Closed cell (Static) method	0.04263
380.48 K, Crystal, Closed cell (Static) method	0.03068
382.43 K, Liquid, Closed cell (Static) method	0.0481
382.47 K, Crystal, Closed cell (Static) method	0.03596
384.38 K, Liquid, Closed cell (Static) method	0.05455
384.44 K, Crystal, Closed cell (Static) method	0.04227
386.42 K, Crystal, Closed cell (Static) method	0.04949
386.56 K, Liquid, Closed cell (Static) method	0.06285
388.3 K, Liquid, Closed cell (Static) method	0.0702
388.4 K, Crystal, Closed cell (Static) method	0.058
390.38 K, Crystal, Closed cell (Static) method	0.06796
390.51 K, Liquid, Closed cell (Static) method	0.08051
392.28 K, Liquid, Closed cell (Static) method	0.0897
392.32 K, Crystal, Closed cell (Static) method	0.07856
394.32 K, Crystal, Closed cell (Static) method	0.09224
394.51 K, Liquid, Closed cell (Static) method	0.102
396.37 K, Liquid, Closed cell (Static) method	0.1144
398.34 K, Liquid, Closed cell (Static) method	0.129
400.4 K, Liquid, Closed cell (Static) method	0.1453
402.25 K, Liquid, Closed cell (Static) method	0.1597
404.42 K, Liquid, Closed cell (Static) method	0.1805
406.32 K, Liquid, Closed cell (Static) method	0.1992
408.4 K, Liquid, Closed cell (Static) method	0.2257
410.17 K, Liquid, Closed cell (Static) method	0.2479
412.21 K, Liquid, Closed cell (Static) method	0.279
414.31 K, Liquid, Closed cell (Static) method	0.3088
416.23 K, Liquid, Closed cell (Static) method	0.3462
418.37 K, Liquid, Closed cell (Static) method	0.3819
420.28 K, Liquid, Closed cell (Static) method	0.4246
422.2 K, Liquid, Closed cell (Static) method	0.4667
424.23 K, Liquid, Closed cell (Static) method	0.5208
426.18 K, Liquid, Closed cell (Static) method	0.5676
428.17 K, Liquid, Closed cell (Static) method	0.6262
430.15 K, Liquid, Closed cell (Static) method	0.6836
432.17 K, Liquid, Closed cell (Static) method	0.7596
434.17 K, Liquid, Closed cell (Static) method	0.8264
436.2 K, Liquid, Closed cell (Static) method	0.922
438.2 K, Liquid, Closed cell (Static) method	1.002

Conditions	Triple point temperature [K]
[1], Crystal	401.34

Conditions	Molar enthalpy of transition or fusion [kcal/mol]
[2]	5.54
